Test results from publication PMC9742383, “From tryptamine to the discovery of efficient multi-target directed ligands against cholinesterase-associated neurodegenerative disorders” (Frontiers in Pharmacology, 2022).
Where two headings read alike, the source gives them in different places.

How the values were obtained:
[1] = in vitro; parameters: MTT cytotoxicity, absorbance at 570 nm, HT-22 mouse hippocampal neuronal cells; details: mouse, read-out: IC50 ± SD / HT-22 ^a
Experimental: The cell lines present in this study were purchased from the China Center for Type Collection (CCTCC, China). For cytotoxicity assay, HT-22, BV2, SH-SY5Y, HepG2, and LO2 cells were incubated in 96-well plates at the density of 5 × 10³ per well. After incubation for 12 h at 37°C, the tested compounds with the required concentrations were added to the corresponding wells and continuously incubated for 24 h at 37°C. Then, the prepared MTT (3-[4,5-dimethyl-2-thiazolyl]-2,5-diphenyl-2H-tetrazolium bromide) solution was added to each well and co-incubated for another 4 h at 37°C. Then, the supernatant was removed, and 100 μl DMSO was added to each well. The OD value of each well was detected at 570 nm using a microplate reader (Bio-Rad Laboratories, CA, United States). The IC50 values were calculated using IBM SPSS Statistics 25.0 software. All experiments were performed in triplicate, and the results were shown as the mean ± SD. In order to explore the applicability of the synthesized CTDs in neurological diseases, the neuronal cytotoxicity of the synthesized compounds was evaluated on mouse hippocampal neuronal cell line HT-22. […] In view of these CTDs endowed strong inhibition efficacy on BuChE, we preliminarily evaluated their safety range by comparing their IC50 values on cytotoxicity and BuChE inhibitory activity. […] Therefore, the series of compounds with dibenzyl groups, especially compounds bearing ring carbon alkyl chains (2f-2h) and tertiary amine residues (2j-2u) with little cytotoxicity on HT-22, can be considered as potential lead building blocks for further structure optimization to develop novel effective agents against neurological diseases.

[2] = target: T1, AChE (Electrophorus electricus, UniProt O42275); assay: Ellman colorimetric assay; assay type: biochemical
T1 construct: native enzyme, Type V-S lyophilized powder, Sigma-Aldrich

[3] = target: BuChE (Equus caballus, UniProt P81908); assay: Ellman colorimetric assay; assay type: biochemical; parameters: gene BCHE; native enzyme from equine serum, purchased from Sigma-Aldrich
[4] = ht-22 hippocampal neuronal cells
[5] = read-out: IC50 ± SD ^a / AChE ^a
[6] = read-out: IC50 ± SD ^a / BuChE ^a

Chain of BuChE (P81908 whole entry): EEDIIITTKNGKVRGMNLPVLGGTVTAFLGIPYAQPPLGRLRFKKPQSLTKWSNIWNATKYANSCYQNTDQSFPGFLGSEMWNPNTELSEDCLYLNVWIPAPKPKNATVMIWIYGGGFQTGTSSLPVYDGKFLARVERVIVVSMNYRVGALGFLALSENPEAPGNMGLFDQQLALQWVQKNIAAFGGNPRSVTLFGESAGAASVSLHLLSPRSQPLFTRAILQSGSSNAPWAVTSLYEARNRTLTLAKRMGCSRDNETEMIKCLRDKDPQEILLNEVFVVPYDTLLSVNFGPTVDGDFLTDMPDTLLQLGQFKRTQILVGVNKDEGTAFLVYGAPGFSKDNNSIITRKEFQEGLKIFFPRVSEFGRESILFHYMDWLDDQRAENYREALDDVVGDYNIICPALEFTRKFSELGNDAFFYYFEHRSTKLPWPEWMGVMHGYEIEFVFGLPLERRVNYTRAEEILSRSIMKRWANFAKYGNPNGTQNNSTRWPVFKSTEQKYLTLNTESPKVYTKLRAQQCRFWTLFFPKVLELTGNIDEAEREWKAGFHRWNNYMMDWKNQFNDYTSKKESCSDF
T1 sequence (O42275 24-633): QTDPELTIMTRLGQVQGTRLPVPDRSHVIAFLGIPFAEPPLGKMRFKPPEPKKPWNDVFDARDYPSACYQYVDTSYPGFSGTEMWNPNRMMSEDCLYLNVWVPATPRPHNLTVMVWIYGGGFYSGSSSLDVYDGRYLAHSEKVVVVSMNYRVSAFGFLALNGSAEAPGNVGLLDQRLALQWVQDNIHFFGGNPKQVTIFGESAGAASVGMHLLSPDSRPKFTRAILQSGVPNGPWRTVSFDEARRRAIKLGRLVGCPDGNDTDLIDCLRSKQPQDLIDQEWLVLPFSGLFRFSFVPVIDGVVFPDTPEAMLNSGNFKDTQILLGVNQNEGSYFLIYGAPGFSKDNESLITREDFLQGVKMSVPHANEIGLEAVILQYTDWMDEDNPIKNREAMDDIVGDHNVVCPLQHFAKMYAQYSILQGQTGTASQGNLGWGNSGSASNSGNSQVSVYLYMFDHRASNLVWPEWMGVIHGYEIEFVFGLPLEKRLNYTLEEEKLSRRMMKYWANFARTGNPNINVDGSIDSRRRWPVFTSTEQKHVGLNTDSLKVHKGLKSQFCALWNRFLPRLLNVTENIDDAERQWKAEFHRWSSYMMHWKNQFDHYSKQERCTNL

| Structure (SMILES) | CC50 at 24 h ([1]; ht-22) [µM] | IC50 ([2]; read-out: IC50 ± SD / AChE ^a) [µM] | IC50 ([3]; read-out: IC50 ± SD / BuChE ^a) [µM] | CC50 at 24 h [1, 4] [µM] | IC50 [2, 5] [µM] | IC50 [3, 6] [µM] |
| --- | --- | --- | --- | --- | --- | --- |
| CCCNC(=O)Oc1ccc2[nH]cc(CCN(Cc3ccccc3)Cc3ccccc3)c2c1 [2a, 3-(2-(dibenzylamino)ethyl)-1H-indol-5-yl propylcarbamate] | 51.58 ± 0.05 | > 100 | 0.0332 ± 0.00499 | – | – | – |
| CCCCNC(=O)Oc1ccc2[nH]cc(CCN(Cc3ccccc3)Cc3ccccc3)c2c1 [2b, 3-(2-(dibenzylamino)ethyl)-1H-indol-5-yl butylcarbamate] | 40.6 ± 1.12 | > 100 | 0.003 ± 0.00021 | – | – | – |
| CCCCCCNC(=O)Oc1ccc2[nH]cc(CCN(Cc3ccccc3)Cc3ccccc3)c2c1 [2d, 3-(2-(dibenzylamino)ethyl)-1H-indol-5-yl hexylcarbamate] | 37.6 ± 1.92 | > 100 | 0.00147 ± 0.00015 | – | – | – |
| O=C(NC1CCCC1)Oc1ccc2[nH]cc(CCN(Cc3ccccc3)Cc3ccccc3)c2c1 [2g, 3-(2-(dibenzylamino)ethyl)-1H-indol-5-yl cyclopentylcarbamate] | 57.3 ± 4.3 | > 100 | 0.0337 ± 0.00162 | – | – | – |
| O=C(Nc1ccccc1)Oc1ccc2[nH]cc(CCN(Cc3ccccc3)Cc3ccccc3)c2c1 [2i, 3-(2-(dibenzylamino)ethyl)-1H-indol-5-yl phenylcarbamate] | 41.8 ± 2.31 | > 100 | 0.0558 ± 0.00314 | – | – | – |
| CCN(CC)C(=O)Oc1ccc2[nH]cc(CCN(Cc3ccccc3)Cc3ccccc3)c2c1 [2k, 3-(2-(dibenzylamino)ethyl)-1H-indol-5-yl diethylcarbamate] | 54.68 ± 0.42 | > 100 | 0.3209 ± 0.00206 | – | – | – |
| CCCN(CCC)C(=O)Oc1ccc2[nH]cc(CCN(Cc3ccccc3)Cc3ccccc3)c2c1 [2l, 3-(2-(dibenzylamino)ethyl)-1H-indol-5-yl dipropylcarbamate] | 38.6 ± 0.9 | > 100 | 0.0159 ± 0.00055 | – | – | – |
| O=C(Oc1ccc2[nH]cc(CCN(Cc3ccccc3)Cc3ccccc3)c2c1)N(c1ccccc1)c1ccccc1 [2n, 3-(2-(dibenzylamino)ethyl)-1H-indol-5-yl diphenylcarbamate] | > 100 | > 100 | 0.2623 ± 0.00248 | – | – | – |
| O=C(Oc1ccc2[nH]cc(CCN(Cc3ccccc3)Cc3ccccc3)c2c1)N1CCCCC1 [2s, 3-(2-(dibenzylamino)ethyl)-1H-indol-5-yl piperidine-1-carboxylate] | 42.7 ± 2.09 | > 100 | 0.0334 ± 0.00521 | – | – | – |
| CCCNC(=O)Oc1ccc2[nH]cc(CCNCc3ccccc3)c2c1 [3a, 3-(2-(benzylamino)ethyl)-1H-indol-5-yl propylcarbamate] | – | – | – | 31.3 ± 2.32 | 1.95 | 0.0182 ± 0.00068 |
| CCCCNC(=O)Oc1ccc2[nH]cc(CCNCc3ccccc3)c2c1 [3b, 3-(2-(benzylamino)ethyl)-1H-indol-5-yl butylcarbamate] | – | – | – | 18.5 ± 0.81 | 1.69 | 0.0237 ± 0.00118 |
| CCCCCCNC(=O)Oc1ccc2[nH]cc(CCNCc3ccccc3)c2c1 [3d, 3-(2-(benzylamino)ethyl)-1H-indol-5-yl hexylcarbamate] | – | – | – | 16.3 ± 1.19 | 2.44 | 0.019 ± 0.00029 |
| CCCCCCCNC(=O)Oc1ccc2[nH]cc(CCNCc3ccccc3)c2c1 [3e, 3-(2-(benzylamino)ethyl)-1H-indol-5-yl heptylcarbamate] | – | – | – | 6.49 ± 0.34 | 1.13 | 0.0336 ± 0.00164 |
| O=C(NC1CCCC1)Oc1ccc2[nH]cc(CCNCc3ccccc3)c2c1 [3g, 3-(2-(benzylamino)ethyl)-1H-indol-5-yl cyclopentylcarbamate] | – | – | – | 18.2 ± 0.95 | 27.2 | 0.0136 ± 0.0007 |
| O=C(NC1CCCCC1)Oc1ccc2[nH]cc(CCNCc3ccccc3)c2c1 [3h, 3-(2-(benzylamino)ethyl)-1H-indol-5-yl cyclohexylcarbamate] | – | – | – | 11.6 ± 0.34 | > 100 | 0.0435 ± 0.00335 |
| O=C(Nc1ccccc1)Oc1ccc2[nH]cc(CCNCc3ccccc3)c2c1 [3i, 3-(2-(benzylamino)ethyl)-1H-indol-5-yl phenylcarbamate] | – | – | – | 18.4 ± 0.43 | 23.3 | 0.11 ± 0.00522 |
| CN(C)C(=O)Oc1ccc2[nH]cc(CCNCc3ccccc3)c2c1 [3j, 3-(2-(benzylamino)ethyl)-1H-indol-5-yl dimethylcarbamate] | – | – | – | 21.7 ± 0.72 | 1.91 | 0.132 ± 0.00359 |
| CCN(CC)C(=O)Oc1ccc2[nH]cc(CCNCc3ccccc3)c2c1 [3k, 3-(2-(benzylamino)ethyl)-1H-indol-5-yl diethylcarbamate] | – | – | – | 16 ± 0.39 | > 100 | 0.0725 ± 0.00655 |
| CCCN(CCC)C(=O)Oc1ccc2[nH]cc(CCNCc3ccccc3)c2c1 [3l, 3-(2-(benzylamino)ethyl)-1H-indol-5-yl dipropylcarbamate] | – | – | – | 6.31 ± 0.39 | > 100 | 0.044 ± 0.00184 |
| CCCCN(CCCC)C(=O)Oc1ccc2[nH]cc(CCNCc3ccccc3)c2c1 [3m, 3-(2-(benzylamino)ethyl)-1H-indol-5-yl dibutylcarbamate] | – | – | – | 3.87 ± 0.35 | 19.8 | 0.0974 ± 0.00853 |
| O=C(Oc1ccc2[nH]cc(CCNCc3ccccc3)c2c1)N(c1ccccc1)c1ccccc1 [3n, 3-(2-(benzylamino)ethyl)-1H-indol-5-yl diphenylcarbamate] | – | – | – | 0.54 ± 0.03 | > 100 | 0.156 ± 0.00358 |
| CON(C)C(=O)Oc1ccc2[nH]cc(CCNCc3ccccc3)c2c1 [3o, 3-(2-(benzylamino)ethyl)-1H-indol-5-yl methoxy(methyl)carbamate] | – | – | – | 50.4 ± 1.07 | 2.61 | 0.0588 ± 0.00292 |
| CN(C(=O)Oc1ccc2[nH]cc(CCNCc3ccccc3)c2c1)c1ccccc1 [3p, 3-(2-(benzylamino)ethyl)-1H-indol-5-yl methyl(phenyl)carbamate] | – | – | – | 11 ± 1.12 | 7.05 | 0.0254 ± 0.00027 |
| O=C(Oc1ccc2[nH]cc(CCNCc3ccccc3)c2c1)N1CCC1 [3q, 3-(2-(benzylamino)ethyl)-1H-indol-5-yl azetidine-1-carboxylate] | – | – | – | 57.8 ± 2.88 | 0.482 ± 0.00599 | 0.00258 ± 0.00013 |
| O=C(Oc1ccc2[nH]cc(CCNCc3ccccc3)c2c1)N1CCCC1 [3r] | – | – | – | 31.7 ± 1.64 | 1.82 | 0.0405 ± 0.00179 |
| O=C(Oc1ccc2[nH]cc(CCNCc3ccccc3)c2c1)N1CCCCCC1 [3t, 3-(2-(benzylamino)ethyl)-1H-indol-5-yl azepane-1-carboxylate] | – | – | – | 11.9 ± 0.39 | > 100 | 0.0232 ± 0.00094 |
| O=C(Oc1ccc2[nH]cc(CCNCc3ccccc3)c2c1)N1CCOCC1 [3u, 3-(2-(benzylamino)ethyl)-1H-indol-5-yl morpholine-4-carboxylate] | – | – | – | 51.3 ± 2.55 | > 100 | 0.112 ± 0.00737 |
| CCCCCNC(=O)Oc1ccc2[nH]cc(CCN)c2c1 [4c, 3-(2-aminoethyl)-1H-indol-5-yl pentylcarbamate] | – | – | – | > 100 | > 100 | 0.121 ± 0.00838 |
| CCCCCCNC(=O)Oc1ccc2[nH]cc(CCN)c2c1 [4d, 3-(2-aminoethyl)-1H-indol-5-yl hexylcarbamate] | – | – | – | 25.2 ± 1.37 | > 100 | 0.0277 ± 0.00204 |
